# Reference: patent US12357652B2, “Formulations of phosphoramidate derivatives of nucleoside drugs” (priority 2015, dated 2025)
# What was measured:
# [1] = Solubility of NUC-7738 in a range of solvents; assay type: physicochemical
# [2] = NUC-7738 concentrate mixed with Tween 80 and added to saline, checked by eye for precipitation; assay and purity after 48 h; assay type: physicochemical
# Procedure: 50 µL of a 100 mg/mL concentrate of NUC-7738 (mixture of diastereoisomers) in a range of solvents (DMA, DMSO, NMP, ethanol, benzyl alcohol) was mixed with 50 µL of Tween® 80 and added to 1.150 mL saline and the resultant solutions were checked by eye for precipitation of NUC-7738. Similarly a 50 µL concentrate of NUC-7738 (mixture of diastereoisomers) in Tween® 80 was mixed with 50 µL water for injection and then added to 1.150 mL saline.
# (§1) Even a solubiliser is not effective, in the absence of a polar aprotic solvent, at retaining NUC-7738 in solution in aqueous conditions. The solutions prepared above were assayed for NUC-7738 content and purity on being formed and also after 48 h. […] In a further experiment, the […] concentration of NUC-7738 in solvents that could be diluted with saline without precipitation was determined. Solutions of NUC-7738 (mixture of diastereoisomers) at various concentrations in NMP, DMSO and DMA were prepared and 100 µL of the solutions were added to 2.40 mL saline.
# [3] = NUC-7738 solutions in NMP, DMSO, DMA diluted with saline, observed for precipitation; assay type: physicochemical
# Procedure: as §1
# [4] = cited from earlier work
# [5] = solutions of Table 8, after 48 h versus on being formed
smiles,measurement,setting,value
"C[C@H](NP(=O)(OC[C@@H]1C[C@@H](O)[C@H](n2cnc3c(N)ncnc32)O1)Oc1ccccc1)C(=O)OCc1ccccc1 (stereo partly drawn) [NUC-7738, 3′-deoxyadenosine-5′-O-[phenyl(benzyloxy-L-alaninyl)] phosphate]",Solubility,[1]; 5% Tween in water,<11.8 mg/mL
same,Solubility,[1]; DMA,>667 mg/mL
same,Solubility,[1]; DMSO,>667 mg/mL
same,Solubility,[1]; Ethanol,>667 mg/mL
same,Solubility,[1]; Heptane,<12 mg/mL
same,Solubility,[1]; NMP,>667 mg/mL
same,Solubility,[1]; Propylene Glycol,>667 mg/mL
same,Solubility,[1]; isopropylacetate,<9 mg/mL
same,Solubility,[1]; tbutylmethylether,<11 mg/mL
same,Appearance,[2]; 100 mg/mL concentrate in BnOH 50 + TW80 50 + Saline 1150,"White precipitate, milky solution"
same,Appearance,[2]; 100 mg/mL concentrate in DMA 50 + TW80 50 + Saline 1150,Clear and limpid solution
same,Appearance,[2]; 100 mg/mL concentrate in DMSO 50 + TW80 50 + Saline 1150,Clear and limpid solution
same,Appearance,[2]; 100 mg/mL concentrate in EtOH 50 + TW80 50 + Saline 1150,"White precipitate, milky solution"
same,Appearance,[2]; 100 mg/mL concentrate in NMP 50 + TW80 50 + Saline 1150,Clear and limpid solution
same,Appearance,[2]; concentrate in TW80 50 + WFI 50 + Saline 1150,"White precipitate, milky solution"
same,Assay content,[2]; [5],substantially unchanged
same,Purity,[2]; [5],substantially unchanged
same,Appearance,[3]; DMA 25 mg/ml concentrate 100 + Saline 2400,White insoluble precipitate from the first drop
same,Appearance,[3]; DMSO 25 mg/ml concentrate 100 + Saline 2400,White precipitate after addition of 100 μL
same,Appearance,[3]; DMSO 50 mg/ml concentrate 100 + Saline 2400,White insoluble precipitate from the first drop
same,Appearance,[3]; DMSO 100 mg/ml concentrate 100 + Saline 2400,White insoluble precipitate from the first drop
same,Appearance,[3]; NMP 25 mg/ml concentrate 100 + Saline 2400,Clear and limpid solution
same,Appearance,[3]; NMP 50 mg/ml concentrate 100 + Saline 2400,White insoluble precipitate from the first drop
same,Appearance,[3]; NMP 100 mg/ml concentrate 100 + Saline 2400,White insoluble precipitate from the first drop
"C[C@H](NP(=O)(OC[C@H]1O[C@@H](n2ccc(N)nc2=O)C(F)(F)[C@@H]1O)Oc1ccccc1)C(=O)OCc1ccccc1 (stereo partly drawn) [NUC-1031, 2′-deoxy-2′,2′-difluoro-D-cytidine-5′-O-[phenyl (benzoxy-L-alaninyl)] phosphate]",Stability (to precipitation and to degradation),"[4]; S-isomer alone or mixture of R and S epimers at 4, 8 and 10 mg/mL, 48 hours after dilution in 0.45% and 0.9% saline, pH 4.5, 6.0 and 7.0, not stirred",stable
same,Osmolarity,[4]; all of the NUC-1031 solutions,acceptable for peripheral administration
